Test system: 188146-221-R-J1-PDC complex spheroid viability
Test: Anticancer human tumor 188146-221-R-J1-PDC patient-derived colon adenocarcinoma cell line growth inhibition [POLQ]
Conditions: for IC50: curve of first compound; for viability, T/C: stronger effect = lower value; active = viability on the fitted dose curve at most 10% of control; inactive = the rest
Procedure: Multicellular complex tumor spheroid response to Polymerase (POL) inhibitors (novobiocin, ART-558, RP6685) in combination with a variety of drugs and investigational agents in selected tumor cell lines
The POL inhibitors (novobiocin, ART-558, and RP6685) were evaluated both individually and in combination with standard of care and investigational anticancer small molecules within a complex spheroid model of solid tumors. . Complex spheroids include a stromal component modeled by human endothelial cells (HUVEC) and fibroblasts modeled by human mesenchymal stem cells (MSCs). The concentration ranges selected for each drug and investigational agent were based upon clinically achievable concentrations if the clinical Cmax of the agent was known.
Compounds. The drugs and investigational agents: novobiocin (NSC847541), ART-558 (NSC835418), RP-6685 (NSC848927), peposertib (NSC802822), ceralasertib (NSC780249), elimusertib (NSC800525), camonsertib (NSC841442), AZD-1390 (NSC803789), olaparib (NSC753686), talazoparib (NSC767125), rucaparib (NSC756644), sotorasib (NSC818433), MRTX-1133 (NSC836407), SN-38 (NSC673596), topotecan (NSC609699), epotoside (NSC141540), doxorubicin (NSC123127), gemcitabine (NSC613327), 5-fluorouracil (NSC19893), paclitaxel (NSC125973), vemurafenib (NSC761431), MSA-2 (NSC828583), SN-011 (NSC837082), adavosertib (NSC754352), prexasertib (NSC758257), carboplatin (NSC241240) and oxaliplatin (NSC266046), were obtained from the National Cancer Institute (NCI) Developmental Therapeutics Program Chemical Repository (21). The FDA-approved anticancer drug set is available from the Developmental Therapeutics Program at https://dtp.cancer.gov/organization/dscb/obtaining/. […] The stock solutions were prepared in dimethyl sulfoxide (DMSO, Sigma-Aldrich, St. Louis, MO, cat. D2650), except for the platinum compounds which were prepared in saline (Quality Biological, Gaithersburg, MD, cat. 114-055-101), at 800-fold the tested concentration and stored at -70 degrees C prior to their use. All drugs and investigational agents were tested over a range starting from a high concentration at or near the clinical Cmax and decreasing in half-log increments. If the clinical Cmax for an agent had not been determined, the highest concentration tested was 10 microM, except for SN-38, which was tested at a high concentration of 1 microM.
Cell Culture. All cells were maintained in an incubator at 37 degrees C and 5% CO2 with 95% humidity. The PDC lines were cultured according to standard operating procedures established by the NCI PDMR (https://pdmr.cancer.gov). Table 3 of the manuscript, lists the cell lines along with the number of the three cell types plated to form the mct-spheroids and media for tumor cell growth. After thawing, all PDC lines, except 997537-175-T-J1-PDC and 415267-285-R-J2-PDC, were cultured in Matrigel-coated flasks prepared with a working solution of 1X Ham's F-12 nutrient mix, without supplementation (Thermo Fisher Scientific, cat. 11765054), 100 U/mL penicillin-streptomycin (Thermo Fisher Scientific, cat. 15140122), and 2.5% Matrigel (Corning Inc., Corning, NY, cat. 354248) for the first three passages. The two PDC lines 997537-175-T-J1-PDC and 415267-285-R-J2-PDC were cultured on uncoated flasks. The 857933-349-R-J2-PDC line was cultured in 6C/Colon 1B media containing advanced DMEM/F-12 (Thermo Fisher Scientific, cat. 12634028), 10 mM HEPES (Thermo Fisher Scientific, cat. 15630080), 1X GlutaMAX supplement (Thermo Fisher Scientific, cat. 35050061), 0.1 mg/mL primocin (InvivoGen, San Diego, CA, cat. ant-pm-2), 10% defined fetal bovine serum, heat inactivated (HyClone Laboratories Inc., Logan, UT, cat. SH30070.03HI), 50% L-WRN conditioned media (ATCC, cat. CRL-3276), 1.25 mM N-Acetyl-L-cysteine (Sigma-Aldrich, cat. A9165), 10 mM nicotinamide (Sigma-Aldrich, cat. N0636), 1X B-27 supplement (Thermo Fisher Scientific, cat. 17504044), 1X N-2 supplement (Thermo Fisher Scientific, cat. […]

[1] = second compound 0.0316 µM, first compound 0.0316 µM
[2] = second compound 0.0316 µM, first compound 0.1 µM
[3] = second compound 0.0316 µM, first compound 0.316 µM
[4] = second compound 0.0316 µM, first compound 1 µM
[5] = second compound 0.0316 µM, first compound 3.16 µM
[6] = second compound 0.0316 µM, first compound 10 µM
[7] = second compound 0.1 µM, first compound 0.0316 µM
[8] = second compound 0.1 µM, first compound 0.1 µM
[9] = second compound 0.1 µM, first compound 0.316 µM
[10] = second compound 0.1 µM, first compound 1 µM
[11] = second compound 0.1 µM, first compound 3.16 µM
[12] = second compound 0.1 µM, first compound 10 µM
[13] = second compound 0.316 µM, first compound 0.0316 µM
[14] = second compound 0.316 µM, first compound 0.1 µM
[15] = second compound 0.316 µM, first compound 0.316 µM
[16] = second compound 0.316 µM, first compound 1 µM
[17] = second compound 0.316 µM, first compound 3.16 µM
[18] = second compound 0.316 µM, first compound 10 µM
[19] = second compound 1 µM, first compound 0.0316 µM
[20] = second compound 1 µM, first compound 0.1 µM
[21] = second compound 1 µM, first compound 0.316 µM
[22] = second compound 1 µM, first compound 1 µM
[23] = second compound 1 µM, first compound 3.16 µM
[24] = second compound 1 µM, first compound 10 µM
[25] = second compound 3.16 µM, first compound 0.0316 µM
[26] = second compound 3.16 µM, first compound 0.1 µM
[27] = second compound 3.16 µM, first compound 0.316 µM
[28] = second compound 3.16 µM, first compound 1 µM
[29] = second compound 3.16 µM, first compound 3.16 µM
[30] = second compound 3.16 µM, first compound 10 µM
[31] = second compound 10 µM, first compound 0.0316 µM
[32] = second compound 10 µM, first compound 0.1 µM
[33] = second compound 10 µM, first compound 0.316 µM
[34] = second compound 10 µM, first compound 1 µM
[35] = second compound 10 µM, first compound 3.16 µM
[36] = second compound 10 µM, first compound 10 µM
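Note: spheroids exposed to compounds for seven days.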

CNCc1ccc(-c2[nH]c3cc(F)cc4c3c2CCNC4=O)cc1 + COC1C(OC(N)=O)C(O)C(Oc2ccc3c(O)c(NC(=O)c4ccc(O)c(CC=C(C)C)c4)c(=O)oc3c2C)OC1(C)C
inactive: viability, T/C [1] 111% | viability, T/C [2] 98.3% | viability, T/C [3] 109% | viability, T/C [4] 102% | viability, T/C [5] 103% | viability, T/C [6] 96.5% | viability, T/C [7] 118% | viability, T/C [8] 104% | viability, T/C [9] 106% | viability, T/C [10] 99.6% | viability, T/C [11] 102% | viability, T/C [12] 117% | viability, T/C [13] 106% | viability, T/C [14] 101% | viability, T/C [15] 102% | viability, T/C [16] 111% | viability, T/C [17] 112% | viability, T/C [18] 104% | viability, T/C [19] 108% | viability, T/C [20] 110% | viability, T/C [21] 106% | viability, T/C [22] 105% | viability, T/C [23] 99.5% | viability, T/C [24] 115% | viability, T/C [25] 98.1% | viability, T/C [26] 99.8% | viability, T/C [27] 106% | viability, T/C [28] 101% | viability, T/C [29] 111% | viability, T/C [30] 107% | viability, T/C [31] 111% | viability, T/C [32] 103% | viability, T/C [33] 110% | viability, T/C [34] 93.2% | viability, T/C [35] 117% | viability, T/C [36] 121%
> 10 µM: IC50 (second compound 0.0316 µM) | IC50 (second compound 0.1 µM) | IC50 (second compound 0.316 µM) | IC50 (second compound 1 µM) | IC50 (second compound 3.16 µM) | IC50 (second compound 10 µM)

Nc1ccn(C2OC(CO)C(O)C2(F)F)c(=O)n1 (stereo unspecified) + COC1C(OC(N)=O)C(O)C(Oc2ccc3c(O)c(NC(=O)c4ccc(O)c(CC=C(C)C)c4)c(=O)oc3c2C)OC1(C)C
< 0.0316 µM: IC50 (second compound 0.0316 µM) | IC50 (second compound 0.316 µM) | IC50 (second compound 1 µM) | IC50 (second compound 3.16 µM) | IC50 (second compound 10 µM)
inactive: viability, T/C [1] 46.8% | viability, T/C [2] 29.5% | viability, T/C [3] 17.4% | viability, T/C [4] 14.4% | viability, T/C [5] 15.2% | viability, T/C [6] 13.2% | viability, T/C [7] 50.4% | viability, T/C [8] 29.4% | viability, T/C [9] 13.8% | viability, T/C [10] 12.5% | viability, T/C [11] 14.8% | viability, T/C [12] 14.3% | viability, T/C [13] 41.1% | viability, T/C [14] 28.7% | viability, T/C [15] 21.8% | viability, T/C [16] 12.2% | viability, T/C [17] 12% | viability, T/C [18] 11% | viability, T/C [19] 41.5% | viability, T/C [20] 24.8% | viability, T/C [21] 19.2% | viability, T/C [22] 13.4% | viability, T/C [23] 13.5% | viability, T/C [24] 12.6% | viability, T/C [25] 46.3% | viability, T/C [26] 26.1% | viability, T/C [27] 16.2% | viability, T/C [28] 13.5% | viability, T/C [29] 14% | viability, T/C [30] 13.9% | viability, T/C [31] 45.6% | viability, T/C [32] 20.5% | viability, T/C [33] 16.1% | viability, T/C [34] 12.4% | viability, T/C [35] 16.4% | viability, T/C [36] 13.3%
0.0321 µM: IC50 (second compound 0.1 µM)

O=C(c1cc(Cc2n[nH]c(=O)c3ccccc23)ccc1F)N1CCN(C(=O)C2CC2)CC1 + COC1C(OC(N)=O)C(O)C(Oc2ccc3c(O)c(NC(=O)c4ccc(O)c(CC=C(C)C)c4)c(=O)oc3c2C)OC1(C)C
> 10 µM: IC50 (second compound 0.0316 µM) | IC50 (second compound 0.1 µM) | IC50 (second compound 0.316 µM) | IC50 (second compound 1 µM) | IC50 (second compound 3.16 µM) | IC50 (second compound 10 µM)
inactive: viability, T/C [1] 93.5% | viability, T/C [2] 88.6% | viability, T/C [3] 100% | viability, T/C [4] 98.4% | viability, T/C [5] 99.5% | viability, T/C [6] 74.3% | viability, T/C [7] 107% | viability, T/C [8] 102% | viability, T/C [9] 97.1% | viability, T/C [10] 106% | viability, T/C [11] 91.3% | viability, T/C [12] 85.2% | viability, T/C [13] 108% | viability, T/C [14] 94.1% | viability, T/C [15] 97.7% | viability, T/C [16] 105% | viability, T/C [17] 90.7% | viability, T/C [18] 72.7% | viability, T/C [19] 106% | viability, T/C [20] 104% | viability, T/C [21] 104% | viability, T/C [22] 96.3% | viability, T/C [23] 89.5% | viability, T/C [24] 74.7% | viability, T/C [25] 108% | viability, T/C [26] 107% | viability, T/C [27] 101% | viability, T/C [28] 91.7% | viability, T/C [29] 105% | viability, T/C [30] 96.6% | viability, T/C [31] 101% | viability, T/C [32] 103% | viability, T/C [33] 98.8% | viability, T/C [34] 97.1% | viability, T/C [35] 108% | viability, T/C [36] 80.5%
